Measurements: PMC9505425, “Targeting of the Mitochondrial TET1 Protein by Pyrrolo[3,2-b]pyrrole Chelators” (International Journal of Molecular Sciences, 2022)
“And” between values parts separate entries of the source, which are not always exact repeats. Identical values can stand only once.

Legend:
[1] = system: H-1299 cells; assay: MTT cytotoxicity assay, H-1299; assay type: cell-based, human; conditions: for Cell viability % / IC50: 48 h; for IC50: NCI-H1299, MTT
In short: (§1)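 Cells seeded at 1.0 × 10^5/well, grown 24 h, then exposed 48 h to compounds at 0.1–20 μM (≤1% DMSO); U118-MG in DMEM, H1299 in RPMI 1640, both with 10% FBS, 37 °C. MTT 2 h, formazan in DMSO read at 570 nm; IC50 relative to untreated cells (100%).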

[2] = system: U-118 MG cells; assay: MTT cytotoxicity assay, U-118 MG; assay type: cell-based, human; conditions: 48 h; for IC50: MTT
In short: as §1

[3] = system: BT-20 cells; assay: MTT cytotoxicity assay, BT-20; assay type: cell-based, human; conditions: for Cell viability % / IC50: 48 h; for IC50: BT-20, MTT
In short: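 BT-20 human breast cells seeded 24 h, then treated 48 h with compound at 0.1–20 μM (DMSO below 1%). Viability by MTT (2 h, formazan in DMSO, A570) against untreated cells as 100%; IC50 from four replicates per test, three independent repeats.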

[4] = Homo sapiens, NCI-H1299, 48 h, H-1299, 100 nM, repeats, read-out: Cell viability %
[5] = Homo sapiens, NCI-H1299, 48 h, H-1299, 2.5 uM, repeats, read-out: Cell viability %
[6] = Homo sapiens, NCI-H1299, 48 h, H-1299, 5 uM, repeats, read-out: Cell viability %
[7] = Homo sapiens, NCI-H1299, 48 h, H-1299, 7.5 uM, repeats, read-out: Cell viability %
[8] = Homo sapiens, NCI-H1299, 48 h, H-1299, 10 uM, repeats, read-out: Cell viability %
[9] = Homo sapiens, NCI-H1299, 48 h, H-1299, 15 uM, repeats, read-out: Cell viability %
[10] = Homo sapiens, NCI-H1299, 48 h, H-1299, 20 uM, repeats, read-out: Cell viability %
[11] = Homo sapiens, U-118-MG, U-118 MG, 100 nM, repeats, read-out: Cell viability %
[12] = Homo sapiens, U-118-MG, U-118 MG, 500 nM, repeats, read-out: Cell viability %
[13] = Homo sapiens, U-118-MG, U-118 MG, 1 uM, repeats, read-out: Cell viability %
[14] = Homo sapiens, U-118-MG, U-118 MG, 2.5 uM, repeats, read-out: Cell viability %
[15] = Homo sapiens, U-118-MG, U-118 MG, 5 uM, repeats, read-out: Cell viability %
[16] = Homo sapiens, U-118-MG, U-118 MG, 7.5 uM, repeats, read-out: Cell viability %
[17] = Homo sapiens, U-118-MG, U-118 MG, 10 uM, repeats, read-out: Cell viability %
[18] = Homo sapiens, U-118-MG, U-118 MG, 15 uM, repeats, read-out: Cell viability %
[19] = Homo sapiens, U-118-MG, U-118 MG, 20 uM, repeats, read-out: Cell viability %
[20] = U-118 MG, 100 nM, repeats, 0.1 µM
[21] = U-118 MG, 500 nM, repeats, 0.5 µM
[22] = U-118 MG, 750 nM, repeats, 0.75 µM
[23] = BT-20, 750 nM, repeats, 0.75 µM
[24] = Homo sapiens, BT-20, 48 h, BT-20, 500 nM, repeats, read-out: Cell viability %
[25] = Homo sapiens, BT-20, 48 h, BT-20, 1 uM, repeats, read-out: Cell viability %
[26] = Homo sapiens, BT-20, 48 h, BT-20, 7.5 uM, repeats, read-out: Cell viability %
[27] = Homo sapiens, BT-20, 48 h, BT-20, 10 uM, repeats, read-out: Cell viability %
[28] = Homo sapiens, BT-20, 48 h, BT-20, 15 uM, repeats, read-out: Cell viability %
[29] = Homo sapiens, BT-20, 48 h, BT-20, 20 uM, repeats, read-out: Cell viability %

Structure (SMILES): Cc1ccc(-n2c(-c3ccc(C(=O)N/N=C/c4ccc(O)cc4O)cc3)cc3c2cc(-c2ccc(C(=O)N/N=C/c4ccc(O)cc4O)cc2)n3-c2ccc(C)cc2)cc1 [Compound 4]
- Cell viability % ([1]; H-1299, 100 nM, repeats, 0.1 µM): 109.0835% and 92.98%
- Cell viability % ([1]; H-1299, 500 nM, repeats, 0.5 µM): 110.8313% and 69.08% and 86.72%
- Cell viability % ([1]; H-1299, 750 nM, repeats, 0.75 µM): 86.2% and 81.89%
- Cell viability % ([1]; H-1299, 1 uM, repeats, 1 µM): 88.02% and 73.99% and 66.83%
- Cell viability % ([1]; H-1299, 2.5 uM, repeats, 2.5 µM): 77.91% and 68.92%
- Cell viability % ([1]; H-1299, 5 uM, repeats, 5 µM): 68.74% and 52.75%
- Cell viability % ([1]; H-1299, 7.5 uM, repeats, 7.5 µM): 38.28% and 33.07%
- Cell viability % ([1]; H-1299, 10 uM, repeats, 10 µM): 21.64% and 18.84%
- Cell viability % ([1]; H-1299, 15 uM, repeats, 15 µM): 10.46% and 11.78%
- Cell viability % ([1]; H-1299, 20 uM, repeats, 20 µM): 7.89% and 6.315%
- viability at 0.1 µM [1, 4]: 110%
- viability at 0.75 µM ([1]; Homo sapiens, NCI-H1299, 48 h, H-1299, 750 nM, repeats, read-out: Cell viability %): 86.1%
- viability at 2.5 µM [1, 5]: 77.6%
- viability at 5 µM [1, 6]: 66.7%
- viability at 7.5 µM [1, 7]: 35.8%
- viability at 10 µM [1, 8]: 14.8%
- viability at 15 µM [1, 9]: 11.1%
- viability at 20 µM [1, 10]: 7.35%
- IC50 ([1]; Homo sapiens): 5.75 µM
- viability at 0.1 µM [2, 11]: 89.7%
- viability at 0.5 µM [2, 12]: 81.5%
- viability at 0.75 µM ([2]; Homo sapiens, U-118-MG, U-118 MG, 750 nM, repeats, read-out: Cell viability %): 88.6%
- viability at 1 µM [2, 13]: 88.8%
- viability at 2.5 µM [2, 14]: 78.8%
- viability at 5 µM [2, 15]: 73.7%
- viability at 7.5 µM [2, 16]: 24.8%
- viability at 10 µM [2, 17]: 30%
- viability at 15 µM [2, 18]: 21.2%
- viability at 20 µM [2, 19]: 15.2%
- IC50 ([2]; Homo sapiens, U-118-MG): 6.81 µM
- Cell viability % [2, 20]: 88.01% and 106.1964%
- Cell viability % [2, 21]: 94.35% and 91.8%
- Cell viability % [2, 22]: 93.98% and 97.45%
- Cell viability % ([2]; U-118 MG, 1 uM, repeats): 94.85% and 87.1%
- Cell viability % ([2]; U-118 MG, 2.5 uM, repeats): 87.61% and 83.16%
- Cell viability % ([2]; U-118 MG, 5 uM, repeats): 72.71% and 76.46%
- Cell viability % ([2]; U-118 MG, 7.5 uM, repeats): 24.19% and 24.17%
- Cell viability % ([2]; U-118 MG, 10 uM, repeats): 29.03% and 31.26%
- Cell viability % ([2]; U-118 MG, 15 uM, repeats): 21.17% and 19.82%
- Cell viability % ([2]; U-118 MG, 20 uM, repeats): 15.6756% and 12.31%
- Cell viability % ([3]; BT-20, 100 nM, repeats, 0.1 µM): 89.05% and 76.97% and 98.11%
- Cell viability % ([3]; BT-20, 500 nM, repeats, 0.5 µM): 90.8088% and 82.57%
- Cell viability % [3, 23]: 103.1798% and 88.69% and 109.7163%
- Cell viability % ([3]; BT-20, 1 uM, repeats, 1 µM): 100.5483% and 88.51%
- Cell viability % ([3]; BT-20, 2.5 uM, repeats, 2.5 µM): 82.74% and 106.2024% and 110.5893%
- Cell viability % ([3]; BT-20, 5 uM, repeats, 5 µM): 77.52% and 61.62%
- Cell viability % ([3]; BT-20, 7.5 uM, repeats, 7.5 µM): 44.3% and 44.18%
- Cell viability % ([3]; BT-20, 10 uM, repeats, 10 µM): 18.92% and 21.27%
- Cell viability % ([3]; BT-20, 15 uM, repeats, 15 µM): 8.454% and 10.83%
- Cell viability % ([3]; BT-20, 20 uM, repeats, 20 µM): 9.864% and 12.92%
- viability at 0.5 µM [3, 24]: 77.8%
- viability at 1 µM [3, 25]: 96.3%
- viability at 5 µM ([3]; Homo sapiens, BT-20, 48 h, BT-20, 5 uM, repeats, read-out: Cell viability %): 73.5%
- viability at 7.5 µM [3, 26]: 37.5%
- viability at 10 µM [3, 27]: 20.1%
- viability at 15 µM [3, 28]: 8.06%
- viability at 20 µM [3, 29]: 8.37%
- IC50 ([3]; Homo sapiens): 6.22 µM
- melting point: 328 to 329 °C

Structure (SMILES): COc1cccc(/C=N/NC(=O)c2ccc(-c3cc4c(cc(-c5ccc(C(=O)N/N=C/c6cccc(OC)c6O)cc5)n4-c4ccc(C)cc4)n3-c3ccc(C)cc3)cc2)c1O [Compound 5]
- viability at 0.1 µM [1, 4]: 113%
- viability at 0.5 µM ([1]; Homo sapiens, NCI-H1299, 48 h, H-1299, 500 nM, repeats, read-out: Cell viability %): 125%
- viability at 2.5 µM [1, 5]: 106%
- viability at 5 µM [1, 6]: 85.7%
- viability at 7.5 µM [1, 7]: 56.6%
- viability at 10 µM [1, 8]: 47.9%
- viability at 15 µM [1, 9]: 46.5%
- viability at 20 µM [1, 10]: 31.4%
- IC50 ([1]; Homo sapiens): 10.1 µM
- viability at 0.1 µM [2, 11]: 97.8%
- viability at 0.5 µM [2, 12]: 91.7%
- viability at 1 µM [2, 13]: 87.4%
- viability at 2.5 µM [2, 14]: 58.2%
- viability at 5 µM [2, 15]: 65.3%
- viability at 7.5 µM [2, 16]: 47.2%
- viability at 10 µM [2, 17]: 45.5%
- viability at 15 µM [2, 18]: 28.9%
- viability at 20 µM [2, 19]: 21%
- IC50 ([2]; Homo sapiens, U-118-MG): 6.85 µM
- Cell viability % [2, 20]: 97.5% and 97.94%
- Cell viability % [2, 21]: 83.56% and 99.84%
- Cell viability % [2, 22]: 101.0241% and 97.49% and 72.15%
- Cell viability % ([2]; U-118 MG, 1 uM, repeats): 91.36% and 94.35%
- Cell viability % ([2]; U-118 MG, 2.5 uM, repeats): 62.67% and 72.48%
- Cell viability % ([2]; U-118 MG, 5 uM, repeats): 61.9341% and 54.55%
- Cell viability % ([2]; U-118 MG, 7.5 uM, repeats): 44.6% and 36.58%
- Cell viability % ([2]; U-118 MG, 10 uM, repeats): 44.7379% and 34.31%
- Cell viability % ([2]; U-118 MG, 15 uM, repeats): 30.3% and 23.7185%
- Cell viability % ([2]; U-118 MG, 20 uM, repeats): 24.2419% and 18.84%
- Cell viability % ([3]; BT-20, 100 nM, repeats, 0.1 µM): 94.73% and 89.5899%
- Cell viability % ([3]; BT-20, 500 nM, repeats, 0.5 µM): 90.47% and 107.0261%
- Cell viability % [3, 23]: 86.64% and 81% and 102.8391%
- Cell viability % ([3]; BT-20, 1 uM, repeats, 1 µM): 92.1% and 100.302%
- Cell viability % ([3]; BT-20, 2.5 uM, repeats, 2.5 µM): 80.3% and 100.57% and 104.0262%
- Cell viability % ([3]; BT-20, 5 uM, repeats, 5 µM): 60.99% and 87.49% and 89.1%
- Cell viability % ([3]; BT-20, 7.5 uM, repeats, 7.5 µM): 52.633% and 55.7373%
- Cell viability % ([3]; BT-20, 10 uM, repeats, 10 µM): 52.47% and 37.54%
- Cell viability % ([3]; BT-20, 15 uM, repeats, 15 µM): 28.45% and 34.27%
- Cell viability % ([3]; BT-20, 20 uM, repeats, 20 µM): 18.3694% and 26.24%
- viability at 0.1 µM ([3]; Homo sapiens, BT-20, 48 h, BT-20, 100 nM, repeats, read-out: Cell viability %): 86%
- viability at 0.5 µM [3, 24]: 97.4%
- viability at 1 µM [3, 25]: 99%
- viability at 7.5 µM [3, 26]: 45.7%
- viability at 10 µM [3, 27]: 41.3%
- viability at 15 µM [3, 28]: 28.5%
- viability at 20 µM [3, 29]: 20.9%
- IC50 ([3]; Homo sapiens): 11.2 µM
- melting point: 321 to 322 °C
